Measurements published in patent US20200030355A1, “COMBINATION THERAPY FOR TREATING CANCER” (Epizyme, Inc., priority 2014, published 2020).
Where a name gives a salt, the structure may show the parent alone. Read-outs that look alike come from different tables or passages of the source.

What was measured:
Assay type in all cases: cell-based, human
SKM-1 cells = assay: EPZ-5676 300 nM 7-day pre-treatment, then second compound 72 hours, ATPLite, IC50 shift (Example 6)
Description: (§1) Cells were then equilibrated in incubators for 24 hours before treatment with a second compound. Treated assay plates were incubated with a second compound for 72 hours. After this time, plates were developed for endpoint analysis using ATPLite to measure ATP content, which is used as an indicator of cell viability.
(§2) “N/D” means that IC50 of the second compound could not be determined for both conditions.

MOLM-13 cells = assay: as above; conditions: 300 nM EPZ-5676 or DMSO 7-day pre-treatment, then 2nd compound 72 hours, Synergy = IC50 of 2nd compound decreased by 2-fold or more vs DMSO control
Description: as §1, §2

MOLM-13 (MLL-AF9) = assay: Combination proliferation study with Compound A2 (ATP/CellTiter-Glo, Chou-Talalay combination index); conditions: for Combination with Compound A2, MOLM-13 (MLL-AF9): 7 Day Cotreatment Model, Table 4
Description: (§3) The acute myelogenous leukemia cell lines MV4-11 (MLL-AF4) and MOLM-13 (MLL-AF9) were obtained from American Type Culture Collection (ATCC; Rockville, Md.) and Deutsche Sammlung von Mikroorganismen and Zellkulturen (DSMZ; Braunschweig, Germany) respectively.
(§4) Studies were performed using MLL-rearranged cell lines in vitro to evaluate the anti-proliferative effect of a combination of two agents together on cell growth. Initial proliferation studies were performed to determine the IC50 of a given compound in each cell line. The cell counts were measured by ATP quantitation using the Promega Cell Titer Glo kit and luminescence values corresponded to the amount of ATP in a given well.
(§5) Compounds were evaluated for synergy in the co-treatment phase by testing the compounds in a concentration range which was bracketed around their IC50 values. The compounds were plated to a 96 well plate in a matrix format (FIG. 3) which includes increasing concentrations of each drug in the combination in a constant ratio, in addition to the effect of each compound alone in the study. Cells were seeded and grown in the log-linear phase for 3 or 7 days in the co-treatment phase. Minimum inhibition (DMSO alone) controls were used in each plate to calculate fraction affected (Fa) of a test well. DMSO concentration was kept at 0.1% v/v.
(§6) The drug combination analysis was performed utilizing the Chou-Talalay method Synergy was determined using the software package Calcusyn by Biosoft. The combination index (CI) is a quantitative term used to describe the level of synergy or antagonism in a given test system. A combination index less than one indicates synergy, and a CI greater than one indicates antagonism. Further, strong synergism is achieved when the CI value falls below 0.3.
(§7) Graphs representing values of combination index (CI) versus Fractional effect (Fa) known as Fa-CI plots were generated and synergy was evaluated. Drug synergy was statistically defined by CI values less than 1, antagonism by CI>1 and additive effect by CI equal to 1.
Graphs representing values of combination index (CI) versus Fractional effect (Fa) known as Fa-CI plots were generated and synergy was evaluated. Drug synergy was statistically defined by CI values less than 1, antagonism by CI>1 and additive effect by CI equal to 1. […]
Cell viability was measured via ATP content using CellTiter-Glo® (Promega).
as §4, with “Proliferation studies” for “Studies”, “MOLM-13, MV4-11 and SKM-1” for “MLL-rearranged”, “cancer cell killing” for “anti-proliferative”, “IC50 values” for “IC50”, “correspond” for “corresponded”, “well. […]” for “well.”
Compounds evaluated for synergy in the co-treatment phase were tested in a range which was bracketed around the IC50's.

MV4-11 (MLL-AF4) = assay: as above; conditions: for Combination of Compound A2 and anti-cancer agent, MV4-11: 7 Day Cotreatment; for Combination with Compound A2, MV4-11 (MLL-AF4): 7 Day Cotreatment Model, Table 4
Description: as §3, §4, §5, §6, §7, §7
The HP-D300 digital dispenser (Tecan) was used to dispense compounds in a combinatorial matrix. […] Cell viability was measured via ATP content using CellTiter-Glo® (Promega).
Viability was determined using CellTiter-Glo® (Promega).
as §4, with “Proliferation studies” for “Studies”, “MOLM-13, MV4-11 and SKM-1” for “MLL-rearranged”, “cancer cell killing” for “anti-proliferative”, “IC50 values” for “IC50”, “correspond” for “corresponded”
These studies were performed to evaluate both the combinatorial effect of compounds on cell killing and the durability of the effect by washing out one of the agents.
Compounds evaluated for synergy in the co-treatment phase were tested in a range which was bracketed around the IC50's. The compounds were plated to a 96 well plate in a matrix format which includes increasing concentrations of each drug in the combination in a constant ratio, in addition to the effect of each compound alone in the study.

[1] = SKM-1 cells, 300 nM EPZ-5676 or DMSO 7-day pre-treatment, then 2nd compound 72 hours, ATPLite, Synergy = IC50 of 2nd compound decreased by 2-fold or more vs DMSO control

CN(C)CC[C@H](CSc1ccccc1)Nc1ccc(S(=O)(=O)NC(=O)c2ccc(N3CCN(Cc4ccccc4-c4ccc(Cl)cc4)CC3)cc2)cc1[N+](=O)[O-] [ABT-737]
SKM-1 (summary of combination study: EPZ-5676 + 2nd compound) (SKM-1 cells; [1]): Synergy (considered synergistic if the IC50 value of the second compound decreased by 2-fold or more when EPZ-5676 was added as compared to the DMSO control)

COc1ccc(-c2ccc3c(N4CCOC[C@@H]4C)nc(N4CCOC[C@@H]4C)nc3n2)cc1CO [AZD 8055]
SKM-1 (summary of combination study: EPZ-5676 + 2nd compound) (SKM-1 cells; [1]): Synergy (considered synergistic if the IC50 value of the second compound decreased by 2-fold or more when EPZ-5676 was added as compared to the DMSO control)

O=C(Nc1cccc(Nc2ncc(Br)c(NCCc3cnc[nH]3)n2)c1)N1CCCC1 [BX-912]
SKM-1 (summary of combination study: EPZ-5676 + 2nd compound) (SKM-1 cells; [1]): Synergy (considered synergistic if the IC50 value of the second compound decreased by 2-fold or more when EPZ-5676 was added as compared to the DMSO control)

C=C(c1ccc(C(=O)O)cc1)c1cc2c(cc1C)C(C)(C)CCC2(C)C [Bexarotene]
MOLM-13 (summary of combination study: EPZ-5676 + 2nd compound) (MOLM-13 cells): Synergy (considered synergistic if the IC50 value of the second compound decreased by 2-fold or more when EPZ-5676 was added as compared to the DMSO control)
SKM-1 (summary of combination study: EPZ-5676 + 2nd compound) (SKM-1 cells; [1]): Synergy (considered synergistic if the IC50 value of the second compound decreased by 2-fold or more when EPZ-5676 was added as compared to the DMSO control)

O=C(/C=C/c1ccc(O)c(O)c1)OCCc1ccccc1 [CAPE]
MOLM-13 (summary of combination study: EPZ-5676 + 2nd compound) (MOLM-13 cells): Synergy (considered synergistic if the IC50 value of the second compound decreased by 2-fold or more when EPZ-5676 was added as compared to the DMSO control)
SKM-1 (summary of combination study: EPZ-5676 + 2nd compound) (SKM-1 cells; [1]): Synergy (considered synergistic if the IC50 value of the second compound decreased by 2-fold or more when EPZ-5676 was added as compared to the DMSO control)

Cc1sc2c(c1C)C(c1ccc(Cl)cc1)=N[C@@H](CC(N)=O)c1nnc(C)n1-2 [CPI-203]
MOLM-13 (summary of combination study: EPZ-5676 + 2nd compound) (MOLM-13 cells): Synergy (considered synergistic if the IC50 value of the second compound decreased by 2-fold or more when EPZ-5676 was added as compared to the DMSO control)
SKM-1 (summary of combination study: EPZ-5676 + 2nd compound) (SKM-1 cells; [1]): Synergy (considered synergistic if the IC50 value of the second compound decreased by 2-fold or more when EPZ-5676 was added as compared to the DMSO control)

C#Cc1cccc(Nc2ncnc3cc(OCCOC)c(OCCOC)cc23)c1 [Erlotinib Hydrochloride]
SKM-1 (summary of combination study: EPZ-5676 + 2nd compound) (SKM-1 cells; [1]): Synergy (considered synergistic if the IC50 value of the second compound decreased by 2-fold or more when EPZ-5676 was added as compared to the DMSO control)

N#Cc1c(C2CCNCC2)cc(-c2c(O)cccc2OCC2CC2)nc1N [IKK-2 Inhibitor VIII]
SKM-1 (summary of combination study: EPZ-5676 + 2nd compound) (SKM-1 cells; [1]): Synergy (considered synergistic if the IC50 value of the second compound decreased by 2-fold or more when EPZ-5676 was added as compared to the DMSO control)

CC(C)C[C@H](NC(=O)CNC(=O)c1cc(Cl)ccc1Cl)B(O)O [MLN2238]
SKM-1 (summary of combination study: EPZ-5676 + 2nd compound) (SKM-1 cells; [1]): Synergy (considered synergistic if the IC50 value of the second compound decreased by 2-fold or more when EPZ-5676 was added as compared to the DMSO control)

C[C@H]1C[C@@H]2[C@H]([C@@H](O)C[C@@]3(C)[C@H]2CC[C@]3(O)C(=O)CO)[C@@]2(C)C=CC(=O)C=C12 [Methylprednisolone]
SKM-1 (summary of combination study: EPZ-5676 + 2nd compound) (SKM-1 cells; [1]): Synergy (considered synergistic if the IC50 value of the second compound decreased by 2-fold or more when EPZ-5676 was added as compared to the DMSO control)

C=C[C@@]1(C)CC(=O)[C@]2(O)[C@@]3(C)[C@@H](O)CCC(C)(C)[C@@H]3[C@H](OC(=O)CCN(C)C)[C@H](OC(C)=O)[C@@]2(C)O1.Cl [NKH 477]
SKM-1 (summary of combination study: EPZ-5676 + 2nd compound) (SKM-1 cells; [1]): Synergy (considered synergistic if the IC50 value of the second compound decreased by 2-fold or more when EPZ-5676 was added as compared to the DMSO control)

CC1(C)CCC(c2ccc(Cl)cc2)=C(CN2CCN(c3ccc(C(=O)NS(=O)(=O)c4ccc(N[C@H](CCN5CCOCC5)CSc5ccccc5)c(S(=O)(=O)C(F)(F)F)c4)cc3)CC2)C1 [Navitoclax]
Combination of Compound A2 and anti-cancer agent, MOLM-13 (MOLM-13 (MLL-AF9); 7 Day Cotreatment): synergy
Combination with Compound A2, MOLM-13 (MLL-AF9) (MOLM-13 (MLL-AF9)): Synergy (Drug synergy was statistically defined by CI values less than 1)
Combination of Compound A2 and anti-cancer agent, MV4-11 (MV4-11 (MLL-AF4)): synergy
Combination with Compound A2, MV4-11 (MLL-AF4) (MV4-11 (MLL-AF4)): Synergy (Drug synergy was statistically defined by CI values less than 1)

CC(C)CC(=O)Nc1[nH]nc2c1CN(C(=O)C1CCN(C)CC1)C2(C)C [PHA-793887]
SKM-1 (summary of combination study: EPZ-5676 + 2nd compound) (SKM-1 cells; [1]): Synergy (considered synergistic if the IC50 value of the second compound decreased by 2-fold or more when EPZ-5676 was added as compared to the DMSO control)

CC(=O)c1c(C)c2cnc(Nc3ccc(N4CCNCC4)cn3)nc2n(C2CCCC2)c1=O [Palbociclib]
Combination with Compound A2, MOLM-13 (MLL-AF9) (MOLM-13 (MLL-AF9)): Synergy (Drug synergy was statistically defined by CI values less than 1)
Combination with Compound A2, MV4-11 (MLL-AF4) (MV4-11 (MLL-AF4)): Synergy (Drug synergy was statistically defined by CI values less than 1)

Cc1[nH]c2ccccc2c1CCNCc1ccc(/C=C/C(=O)NO)cc1 [Panobinostat]
Combination with Compound A2, MOLM-13 (MLL-AF9) (MOLM-13 (MLL-AF9)): Synergy (Drug synergy was statistically defined by CI values less than 1)
Combination with Compound A2, MV4-11 (MLL-AF4) (MV4-11 (MLL-AF4)): Antagonistic (antagonism by CI>1)

COc1ccc(Cc2nccc3cc(OC)c(OC)cc23)cc1OC [Papaverine Hydrochloride]
SKM-1 (summary of combination study: EPZ-5676 + 2nd compound) (SKM-1 cells; [1]): Synergy (considered synergistic if the IC50 value of the second compound decreased by 2-fold or more when EPZ-5676 was added as compared to the DMSO control)

CC(C)(C)c1cc(NC(=O)Nc2ccc(-c3cn4c(n3)sc3cc(OCCN5CCOCC5)ccc34)cc2)no1 [Quizartinib]
Combination with Compound A2, MOLM-13 (MLL-AF9) (MOLM-13 (MLL-AF9)): Synergy (Drug synergy was statistically defined by CI values less than 1)
Combination of Compound A2 and anti-cancer agent, MV4-11 (MV4-11 (MLL-AF4)): synergy

COc1ccc(CCc2nc3cc(-c4c(C)noc4C)ccc3n2C[C@H](C)N2CCOCC2)cc1Cl [SGC-CBP30]
SKM-1 (summary of combination study: EPZ-5676 + 2nd compound) (SKM-1 cells; [1]): Synergy (considered synergistic if the IC50 value of the second compound decreased by 2-fold or more when EPZ-5676 was added as compared to the DMSO control)

CCN(CC)CCNC(=O)c1c(C)[nH]c(/C=C2\C(=O)Nc3ccc(F)cc32)c1C [Sunitinib Malate]
SKM-1 (summary of combination study: EPZ-5676 + 2nd compound) (SKM-1 cells; [1]): 2.0

CC[C@]1(O)C[C@H]2CN(CCc3c([nH]c4ccccc34)[C@@](C(=O)OC)(c3cc4c(cc3OC)N(C=O)[C@H]3[C@@](O)(C(=O)OC)[C@H](OC(C)=O)[C@]5(CC)C=CCN6CC[C@]43[C@@H]65)C2)C1 [Vincristine]
Combination with Compound A2, MOLM-13 (MLL-AF9) (MOLM-13 (MLL-AF9)): Additive (additive effect by CI equal to 1)
Combination with Compound A2, MV4-11 (MLL-AF4) (MV4-11 (MLL-AF4)): Additive (additive effect by CI equal to 1)

O=C(CCCCCCC(=O)Nc1ccccc1)NO [Vorinostat]
Combination with Compound A2, MOLM-13 (MLL-AF9) (MOLM-13 (MLL-AF9)): Additive/Synergy
Combination with Compound A2, MV4-11 (MLL-AF4) (MV4-11 (MLL-AF4)): Antagonistic (antagonism by CI>1)

Arsenic Trioxide
SKM-1 (summary of combination study: EPZ-5676 + 2nd compound) (SKM-1 cells): 2.0
